For assay [1], the target named is T1, RORγ-LBD (Homo sapiens, UniProt P51449).
T1 construct: made in house; host or cells: SF9 cells (baculovirus); used as diluted lysate
T1 sequence (P51449 269-508 limits assumed): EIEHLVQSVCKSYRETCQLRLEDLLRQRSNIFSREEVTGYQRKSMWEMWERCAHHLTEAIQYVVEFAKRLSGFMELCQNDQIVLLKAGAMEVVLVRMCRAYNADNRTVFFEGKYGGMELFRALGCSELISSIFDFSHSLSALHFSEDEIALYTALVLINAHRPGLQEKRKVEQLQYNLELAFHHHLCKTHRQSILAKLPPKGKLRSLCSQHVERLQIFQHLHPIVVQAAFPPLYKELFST
Kind of assay: RORγ-Ligand Binding Domain (LBD) TR-FRET Assay. In kind it is biochemical. To be noted: RORγ-LBD TR-FRET. In short, it runs like this:
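Lysate from SF9 cells expressing His-RORγ-LBD is diluted to about 3 nM final in 50 mM Tris pH 7.0 assay buffer. A biotin-tagged SRC1 LXXLL peptide goes in at 200 nM final, plus ursolic acid at 2 μM final. Test compounds carry 1% DMSO final; signal read by TR-FRET.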

Assay [2] deals with T2, Gal4-RORγ-LBD (Homo sapiens, UniProt P51449).
T2 construct: expressed in transfected cells
T2 sequence (P51449 269-508 limits assumed): T1 sequence (P51449 269-508 limits assumed)
Kind of assay: Gal4-RORγ Luciferase Reporter Assay in HEK-293T Cells. The format is cell-based. To be noted: HEK-293 cells, luciferase reporter, with ursolic acid. In short, it runs like this:
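Max Response was taken as the upper plateau of a 4-parameter logistic fit of luciferase signal, normalized to 100 for wells without ursolic acid or compound. Transiently Gal4-RORγ-LBD/Gal4-luc transfected HEK-293 cells carrying […] ursolic acid were incubated with test compounds (0.2% DMSO) overnight at 37 °C and read with One-Glo.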
In general terms: A reporter such as luciferase makes a cellular process visible.

On to `COC(=O)CC[C@H]1CN(S(=O)(=O)c2cccc(OC(F)F)c2)c2cc(/C=C/c3ccccc3C(F)(F)F)ccc2O1` [Example 89AP, (S,E)-methyl 3-(4-((3-(difluoromethoxy)phenyl)sulfonyl)-6-(2-(trifluoromethyl)styryl)-3,4-dihydro-2H-benzo[b][1,4]-oxazin-2-yl)propanoate], for which the EC50 (in general, the concentration needed to bring the measured effect to its halfway point) is below 500 nM in assay [1] and 500 to 5000 nM in assay [2].

Consider `N#Cc1ccccc1/C=C/c1ccc2c(c1)N(S(=O)(=O)c1cccc(OC(F)F)c1)C[C@H](CCC(=O)O)O2` [Example 89AQ, (S,E)-3-(6-(2-cyanostyryl)-4-((3-(difluoromethoxy)phenyl)sulfonyl)-3,4-dihydro-2H-benzo[b][1,4]oxazin-2-yl)propanoic acid], for which the EC50 in assay [1] was below 500 nM; in assay [2], 500 to 5000 nM.

Consider `COC(=O)CC[C@H]1CN(S(=O)(=O)c2cccc(OC(F)F)c2)c2cc(/C=C/c3ccccc3C#N)ccc2O1` [Example 89AR, (S,E)-methyl 3-(6-(2-cyanostyryl)-4-((3-(difluoromethoxy)phenyl)sulfonyl)-3,4-dihydro-2H-benzo[b][1,4]-oxazin-2-yl)propanoate], for which the EC50 in assay [1] is below 500 nM; in assay [2], 500 to 5000 nM.

Regarding `CCOc1nn(CC)cc1S(=O)(=O)N1C[C@H](CCC(=O)O)Oc2ccc(/C=C/c3ccccc3C)cc21` [Example 89AS, (S,E)-3-(4-((3-ethoxy-1-ethyl-1H-pyrazol-4-yl)sulfonyl)-6-(2-methylstyryl)-3,4-dihydro-2H-benzo[b][1,4]oxazin-2-yl)propanoic acid], the values for the EC50 in assay [1] and in assay [2] were below 500 nM and above 10000 nM, respectively.

As to `CCOc1nn(CC)cc1S(=O)(=O)N1C[C@H](CCC(=O)OC)Oc2ccc(/C=C/c3ccccc3C)cc21` [Example 89AT, (S,E)-methyl 3-(4-((3-ethoxy-1-ethyl-1H-pyrazol-4-yl)sulfonyl)-6-(2-methylstyryl)-3,4-dihydro-2H-benzo[b][1,4]oxazin-2-yl)propanoate], the EC50 in assay [1] was below 500 nM; in assay [2] it was 500 to 5000 nM.

In the case of `CCOc1nn(CC)cc1S(=O)(=O)N1C[C@H](CCC(=O)O)Oc2ccc(/C=C/c3ccccc3SC)cc21` [Example 89AU, (S,E)-3-(4-((3-ethoxy-1-ethyl-1H-pyrazol-4-yl)sulfonyl)-6-(2-(methylthio)styryl)-3,4-dihydro-2H-benzo[b][1,4]oxazin-2-yl)propanoic acid], the EC50 in assay [1] and in assay [2] was below 500 nM each time.

Take `CCOc1nn(CC)cc1S(=O)(=O)N1C[C@H](CCC(=O)OC)Oc2ccc(/C=C/c3ccccc3SC)cc21` [Example 89AV, (S,E)-methyl 3-(4-((3-ethoxy-1-ethyl-1H-pyrazol-4-yl)sulfonyl)-6-(2-(methylthio)styryl)-3,4-dihydro-2H-benzo[b][1,4]oxazin-2-yl)propanoate]: the EC50 in assay [1] and in assay [2] was below 500 nM each time.

As for `CCc1ccccc1/C=C/c1ccc2c(c1)N(S(=O)(=O)c1cccc(OC(F)F)c1)C[C@H](CCC(=O)O)O2` [Example 89AW, (S,E)-3-(4-((3-(difluoromethoxy)phenyl)sulfonyl)-6-(2-ethylstyryl)-3,4-dihydro-2H-benzo[b][1,4]oxazin-2-yl)propanoic acid], the EC50 in assay [1] was below 500 nM; in assay [2], 500 to 5000 nM.

On to `CCc1ccccc1/C=C/c1ccc2c(c1)N(S(=O)(=O)c1cccc(OC(F)F)c1)C[C@H](CCC(=O)OC)O2` [Example 89AX, (S,E)-methyl 3-(4-((3-(difluoromethoxy)phenyl)sulfonyl)-6-(2-ethylstyryl)-3,4-dihydro-2H-benzo[b][1,4]oxazin-2-yl)propanoate], for which the values for the EC50 in assay [1] and in assay [2] were below 500 nM and 500 to 5000 nM, respectively.

On to `COc1ccccc1/C=C/c1ccc2c(c1)N(S(=O)(=O)c1cccc(OC(F)F)c1)C[C@H](CCC(=O)O)O2` [Example 89AY, (S,E)-3-(4-((3-(difluoromethoxy)phenyl)sulfonyl)-6-(2-methoxystyryl)-3,4-dihydro-2H-benzo[b][1,4]oxazin-2-yl)propanoic acid], for which the EC50 was below 500 nM in assay [1] and 500 to 5000 nM in assay [2].

`COC(=O)CC[C@H]1CN(S(=O)(=O)c2cccc(OC(F)F)c2)c2cc(/C=C/c3ccccc3OC)ccc2O1` [Example 89AZ, (S,E)-methyl 3-(4-((3-(difluoromethoxy)phenyl)sulfonyl)-6-(2-methoxystyryl)-3,4-dihydro-2H-benzo[b][1,4]oxazin-2-yl)propanoate]: the EC50 in assay [1] and in assay [2] was below 500 nM each time.

As for `COC(=O)CC[C@H]1CN(S(=O)(=O)c2cccc(OC(F)F)c2)c2cc(/C=C/c3c(F)cccc3Cl)ccc2O1` [Example 89B, (S,E)-methyl 3-(6-(2-chloro-6-fluorostyryl)-4-((3-(difluoromethoxy)phenyl)sulfonyl)-3,4-dihydro-2H-benzo[b][1,4]oxazin-2-yl)propanoate], the results for the EC50 in assay [1] and in assay [2] were below 500 nM and 500 to 5000 nM, respectively.

For `CCOc1nn(CC)cc1S(=O)(=O)N1C[C@H](CCC(=O)O)Oc2ccc(/C=C/c3ccccc3OC(F)(F)F)cc21` [Example 89BA, (S,E)-3-(4-((3-ethoxy-1-ethyl-1H-pyrazol-4-yl)sulfonyl)-6-(2-(trifluoromethoxy)styryl)-3,4-dihydro-2H-benzo[b][1,4]oxazin-2-yl)propanoic acid], the values for the EC50 in assay [1] and in assay [2] were below 500 nM and 500 to 5000 nM, respectively.

For the compound `CCOc1nn(CC)cc1S(=O)(=O)N1C[C@H](CCC(=O)OC)Oc2ccc(/C=C/c3ccccc3OC(F)(F)F)cc21` [Example 89BB, (S,E)-methyl 3-(4-((3-ethoxy-1-ethyl-1H-pyrazol-4-yl)sulfonyl)-6-(2-(trifluoromethoxy)styryl)-3,4-dihydro-2H-benzo[b][1,4]-oxazin-2-yl)propanoate], the results for the EC50 in assay [1] and in assay [2] were below 500 nM and 500 to 5000 nM, respectively.

On to `CCOc1nn(CC)cc1S(=O)(=O)N1C[C@H](CCC(=O)O)Oc2ccc(/C=C/c3ccccc3Cl)cc21` [Example 89BC, (S,E)-3-(6-(2-chlorostyryl)-4-((3-ethoxy-1-ethyl-1H-pyrazol-4-yl)sulfonyl)-3,4-dihydro-2H-benzo[b][1,4]oxazin-2-yl)propanoic acid], for which the EC50 was below 500 nM in assay [1] and 500 to 5000 nM in assay [2].

Take `CCOc1nn(CC)cc1S(=O)(=O)N1C[C@H](CCC(=O)OC)Oc2ccc(/C=C/c3ccccc3Cl)cc21` [Example 89BD, (S,E)-methyl 3-(6-(2-chlorostyryl)-4-((3-ethoxy-1-ethyl-1H-pyrazol-4-yl)sulfonyl)-3,4-dihydro-2H-benzo[b][1,4]-oxazin-2-yl)propanoate]: the EC50 in assay [1] was below 500 nM; in assay [2] it was above 10000 nM.

Take `Cc1ccc(/C=C/c2ccc3c(c2)N(S(=O)(=O)c2cccc(OC(F)F)c2)C[C@H](CCC(=O)O)O3)cc1` [Example 89BE, (S,E)-3-(4-((3-(difluoromethoxy)phenyl)sulfonyl)-6-(4-methylstyryl)-3,4-dihydro-2H-benzo[b][1,4]oxazin-2-yl)propanoic acid]: the 50% effective concentration (EC50) is 500 to 5000 nM in assay [1] and above 10000 nM in assay [2].

As to `COC(=O)CC[C@H]1CN(S(=O)(=O)c2cccc(OC(F)F)c2)c2cc(/C=C/c3ccc(C)cc3)ccc2O1` [Example 89BF, (S,E)-methyl 3-(4-((3-(difluoromethoxy)phenyl)sulfonyl)-6-(4-methylstyryl)-3,4-dihydro-2H-benzo[b][1,4]oxazin-2-yl)propanoate], the 50% effective concentration (EC50) in assay [1] was 500 to 5000 nM; in assay [2], above 10000 nM.

Consider `Cc1cc(O)cc(C)c1/C=C/c1ccc2c(c1)N(S(=O)(=O)c1cccc(C(F)(F)F)c1)C[C@H](CCC(=O)O)O2` [Example 89BG, (S,E)-3-(6-(4-hydroxy-2,6-dimethylstyryl)-4-((3-(trifluoromethyl)phenyl)sulfonyl)-3,4-dihydro-2H-benzo[b][1,4]oxazin-2-yl)propanoic acid], for which the figures for the EC50 in assay [1] and in assay [2] were below 500 nM and 500 to 5000 nM, respectively.

Consider `O=C(O)CC[C@H]1CN(S(=O)(=O)c2cccc(C(F)(F)F)c2)c2cc(/C=C/c3ccc(Cl)cc3F)ccc2O1` [Example 89BH, (S,E)-3-(6-(4-chloro-2-fluorostyryl)-4-((3-(trifluoromethyl)phenyl)sulfonyl)-3,4-dihydro-2H-benzo[b][1,4]oxazin-2-yl)propanoic acid], for which the EC50 in assay [1] was below 500 nM; in assay [2], above 10000 nM.

For the compound `O=C(O)CC[C@H]1CN(S(=O)(=O)c2cccc(C(F)(F)F)c2)c2cc(/C=C/c3ncccc3C(F)(F)F)ccc2O1` [Example 89BI, (S,E)-3-(4-((3-(trifluoromethyl)phenyl)sulfonyl)-6-(2-(3-(trifluoromethyl)pyridin-2-yl)vinyl)-3,4-dihydro-2H-benzo[b][1,4]oxazin-2-yl)propanoic acid], the EC50 in assay [1] and in assay [2] was below 500 nM throughout.

Take `Cc1cccnc1/C=C/c1ccc2c(c1)N(S(=O)(=O)c1cccc(C(F)(F)F)c1)C[C@H](CCC(=O)O)O2` [Example 89BJ, (S,E)-3-(6-(2-(3-methylpyridin-2-yl)vinyl)-4-((3-(trifluoromethyl)phenyl)sulfonyl)-3,4-dihydro-2H-benzo[b][1,4]oxazin-2-yl)propanoic acid]: the results for the EC50 in assay [1] and in assay [2] were below 500 nM and 500 to 5000 nM, respectively.
